Laboratory results from patent publication US12391677B2, “Thyroid hormone receptor agonists” (INVENTISBIO CO., LTD., priority 2018, dated 2025).

Assays:
[1] = biological target: ligand binding domain of thyroid hormone receptor beta (Homo sapiens (Human), UniProt P10828); assay: Thyroid hormone receptor TR-FRET binding assay (TRβ LBD); settings: TRβ LBD 2 nM
Experimental: (§1) TR-FRET binding assay was used to test representative compounds herein.
(§2) The ligand binding domain of thyroid hormone receptor alpha and the ligand binding domain of thyroid hormone receptor beta with GST tag were purchased from Invitrogen. Biotin-SRC2-2 coactivator peptide was purchased from Sangon Biotech, Europium anti-GST and Streptavidin-D2 was from Cisbio.
(§3) Five microliters of 4× compound serial dilution was added in the 384-well plate, white, low volume, round-bottom assay plate. […] Centrifuge the assay plates at 1000 g for 1 min and incubate 1 hr at RT, protected from light. […] Calculate EC50 by fitting % Activity values and log of compound concentrations to nonlinear regression (dose response—variable slope) with Graphpad 5.0.

[2] = biological target: ligand binding domain of thyroid hormone receptor alpha (Homo sapiens (Human), UniProt P10827); assay: Thyroid hormone receptor TR-FRET binding assay (TRα LBD); settings: TRα LBD 4 nM
Sequence of ligand binding domain of thyroid hormone receptor alpha (P10827 other isoform, or with tags, fused parts or gaps del 1-162, other chains not shown): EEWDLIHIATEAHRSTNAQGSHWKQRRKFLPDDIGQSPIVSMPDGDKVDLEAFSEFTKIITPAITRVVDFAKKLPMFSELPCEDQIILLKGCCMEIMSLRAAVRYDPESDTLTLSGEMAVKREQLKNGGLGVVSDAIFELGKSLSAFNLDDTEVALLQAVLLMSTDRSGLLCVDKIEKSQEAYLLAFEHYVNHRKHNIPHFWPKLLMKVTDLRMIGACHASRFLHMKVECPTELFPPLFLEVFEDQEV
Experimental: as §1, §2, §3

Sequence of ligand binding domain of thyroid hormone receptor beta (P10828 217-461): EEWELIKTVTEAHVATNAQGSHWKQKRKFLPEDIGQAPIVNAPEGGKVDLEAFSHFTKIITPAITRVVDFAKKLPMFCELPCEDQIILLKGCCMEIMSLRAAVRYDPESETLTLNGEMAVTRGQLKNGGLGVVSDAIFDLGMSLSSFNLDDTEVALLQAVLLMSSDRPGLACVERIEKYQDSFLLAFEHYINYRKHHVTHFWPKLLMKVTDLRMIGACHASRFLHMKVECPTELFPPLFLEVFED

| EC50 [1] [µM] | EC50 [2] [µM] | SMILES |
| --- | --- | --- |
| 2.33 | 90 | N#Cc1nn(-c2cc(Cl)c(Sc3cc(Cc4ccccc4)c(=O)[nH]n3)c(Cl)c2)c(=O)[nH]c1=O [Compound 80] |
| 0.19 | 1.17 | Cc1nn(-c2cc(Cl)c(Oc3cc(CC4CCCC4)c(=O)[nH]n3)c(Cl)c2)c(=O)[nH]c1=O [Compound 59] |
| 4.16 | > 10 | Cc1cc(-n2nc(C#N)c(=O)[nH]c2=O)c(F)c(C)c1Oc1cc(C(C)C)c(=O)[nH]n1 [Compound 45] |
| 0.36 | – | CC(c1ccccc1)c1cc(Oc2c(Cl)cc(-n3nc(C#N)c(=O)[nH]c3=O)cc2Cl)n[nH]c1=O (single isomer, unassigned) [Compound 89] |
| 0.24 | 90 | N#Cc1nn(-c2cc(Cl)c(Oc3cc(Cc4ccccc4)c(=O)[nH]n3)c(C(F)(F)F)c2)c(=O)[nH]c1=O [Compound 64] |
| > 10 | > 10 | N#Cc1nn(-c2cc(Cl)c(Oc3cc(CCc4ccccc4)c(=O)[nH]n3)c(Cl)c2)c(=O)[nH]c1=O [Compound 26] |
| > 90 | – | Cc1cc(OCP(=O)(O)O)cc(C)c1Cc1cc(C(C)C)c(=O)[nH]n1 [Compound 85] |
| 0.66 | – | CC(C)c1c[nH]c2ncc(Oc3c(Cl)cc(-n4nc(C#N)c(=O)[nH]c4=O)cc3Cl)cc12 [Compound 84] |
| 1.07 | 8.57 | Cc1nn(-c2cc(Cl)c(Oc3cc(CC4CCC(O)CC4)c(=O)[nH]n3)c(Cl)c2)c(=O)[nH]c1=O (stereo not shown) [Compound 55] |
| 3.21 | – | CC(c1ccccc1)c1cc(Oc2c(Cl)cc(-n3nc(C#N)c(=O)[nH]c3=O)cc2Cl)n[nH]c1=O (single isomer, unassigned) [Compound 88] |
| 0.24 | – | CC(c1ccccc1)c1cc(Oc2c(Cl)cc(-n3nc(C#N)c(=O)[nH]c3=O)cc2C(F)(F)F)n[nH]c1=O (single isomer, unassigned) [Compound 95] |
| 90 | 90 | N#Cc1nn(-c2cc(Cl)c(Oc3cc(C4CCN(Cc5ccccc5)CC4)c(=O)[nH]n3)c(Cl)c2)c(=O)[nH]c1=O [Compound 77] |
| > 10 | > 10 | N#Cc1nn(-c2cc(Cl)c(Oc3cc(-c4ccccc4)c(=O)[nH]n3)c(Cl)c2)c(=O)[nH]c1=O [Compound 24] |
| 0.15 | 15.6 | Cc1nn(-c2cc(Cl)c(Oc3cc(C(C)C4CCCCC4)c(=O)[nH]n3)c(Cl)c2)c(=O)[nH]c1=O (stereo not shown) [Compound 61] |
| > 10 | > 10 | N#Cc1nn(-c2ccc(Oc3cc(C4CC4)c(=O)[nH]n3)c(Cl)c2)c(=O)[nH]c1=O [Compound 6] |
| 42.4 | 90 | CC(C)c1cc(Oc2c(Cl)cc(CCP(=O)(O)O)cc2Cl)n[nH]c1=O [Compound 70] |
| 0.84 | – | CC(c1ccccc1)c1cc(Oc2c(Cl)cc(-n3nc(C#N)c(=O)[nH]c3=O)cc2C(F)(F)F)n[nH]c1=O (single isomer, unassigned) [Compound 96] |
| 0.23 | 3.2 | Cc1nn(-c2cc(Cl)c(Oc3cc(Cc4ccc(Cl)cc4)c(=O)[nH]n3)c(Cl)c2)c(=O)[nH]c1=O [Compound 49] |
| > 90 | – | CC(O)(CO)c1ccc(Cc2cc(Oc3c(Cl)cc(-n4nc(C#N)c(=O)[nH]c4=O)cc3Cl)n[nH]c2=O)cc1 (stereo not shown) [Compound 86] |
| 11.7 | > 90 | CC(C)c1cc(Oc2c(Cl)cc(-n3nc(C4CC4)c(=O)[nH]c3=O)cc2Cl)n[nH]c1=O [Compound 36] |
| 0.26 | – | CC(c1cc(Oc2c(Cl)cc(-n3nc(C#N)c(=O)[nH]c3=O)cc2C(F)(F)F)n[nH]c1=O)C1CCCCC1 (racemic) [Compound 97] |
| 0.5 | – | CC(c1ccccc1)c1cc(Oc2c(Cl)cc(-n3nc(C#N)c(=O)[nH]c3=O)cc2C(F)(F)F)n[nH]c1=O (racemic) [Compound 94] |
| 1.56 | – | CC(c1cc(Oc2c(Cl)cc(-n3nc(C#N)c(=O)[nH]c3=O)cc2Cl)n[nH]c1=O)C1CCCCC1 (single isomer, unassigned) [Compound 93] |
| 1.21 | – | N#Cc1nn(-c2cc(Cl)c(Oc3ccc4[nH]cc(C(N)=O)c4c3)c(Cl)c2)c(=O)[nH]c1=O [Compound 87] |
